Values of other authors in patent EP4817601A1, “NANOPARTICLES COMPRISING SIROLIMUS AND ALBUMIN, PHARMACEUTICAL COMPOSITION FOR SUBCUTANEOUS ADMINISTRATION, COMPRISING SAME, AND PREPARATION METHOD THEREFOR” (SNBioscience Inc., priority 2023, dated 2025).

Conditions: poorly soluble drug; background statement

SMILES: CO[C@H]1C[C@@H]2CC[C@@H](C)[C@@](O)(O2)C(=O)C(=O)N2CCCC[C@H]2C(=O)O[C@H]([C@H](C)C[C@@H]2CC[C@@H](O)[C@H](OC)C2)CC(=O)[C@H](C)/C=C(\C)[C@@H](O)[C@@H](OC)C(=O)[C@H](C)C[C@H](C)/C=C/C=C/C=C/1C [Sirolimus]
- bioavailability (BA): 14%
